Laboratory results taken from patent US20070141072A1, “Use of multifunctional transcription factor yin-yang-1 and variants thereof for treating illnesses, especially type 1 diabetes” (ERNST-MORITZ-ARNDT-UNIVERSITAT GREIFSWALD, priority 2002, published 2007).

Tested on: calbindin-D28k
Experiment: Calbindin-D28k protein expression in isolated islets of Langerhans, Western blot
Assay type: cell-based, rat
Conditions: increasing calcium concentration in the medium
Text: There were however significant differences in protein expression using Western blot analysis. The calcium-binding protein, calbindin-D28k, was already twice as high in BB.6S rat islets under basal conditions as that of BB/OK rats. […] Calbindin-D28k is a cytosolic calcium-binding protein, which is primarily expressed in the kidney, but also in the pancreas and brain, and which can prevent apoptotic (gene controlled) cell death (41, 42). In functional terms it is supposed that calbindin-D28k is involved in regulation of calcium reabsorption.
Calbindin-D28k protein expression using Western blot analysis under basal conditions and with increasing calcium concentration in the medium.

In the case of `[Ca+2]` [calcium], the “protein expression of calbindin-D28k” value (BB.6S islets) is reported as “clearly increased” and the “protein expression of calbindin-D28k” value (BB/OK islets) is reported as “almost uninfluenced”.
